Among the data in patent US12344610B2, “APOL1 inhibitors and methods of use” (Maze Therapeutics, Inc., priority 2022, dated 2025) are AC50 and EC50 values, retold here.

In one assay the target is T1, APOL1 G2 (Homo sapiens, UniProt O14791, DEL388-389).
T1 construct: expressed in transfected cells; host or cells: HEK293 T-REx clonal line stably expressing GCaMP6f (HEK T-REx/GCaMP6f/APOL1 G2 K6.3), doxycycline induced
T1 sequence (O14791 with tags, fused parts or gaps DEL388-389): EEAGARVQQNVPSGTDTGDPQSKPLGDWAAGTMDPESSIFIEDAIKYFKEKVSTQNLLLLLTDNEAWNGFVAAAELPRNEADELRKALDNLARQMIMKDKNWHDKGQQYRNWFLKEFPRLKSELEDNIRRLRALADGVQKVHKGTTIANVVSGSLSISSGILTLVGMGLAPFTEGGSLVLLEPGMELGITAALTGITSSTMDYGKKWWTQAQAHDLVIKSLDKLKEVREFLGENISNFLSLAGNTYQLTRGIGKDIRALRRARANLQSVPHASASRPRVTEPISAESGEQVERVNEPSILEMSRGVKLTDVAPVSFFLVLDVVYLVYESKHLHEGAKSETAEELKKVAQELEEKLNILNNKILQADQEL
Description: APOL1-mediated calcium transport (calcium influx) assay, HEK T-REx/GCaMP6f/APOL1 G2 K6.3 cells, FLIPR TETRA. The settings on record: prevention of calcium influx; geometric mean of at least 2 assay runs; † = average of a technical replicate from a single assay run. Type of assay: cell-based. In outline: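 A HEK293 T-REx clone stably expressing GCaMP6f had APOL1 G2 induced with doxycycline (20 ng/mL solution added) for 6 h. Cells were then washed into Ca2+-free Tyrode's buffer (pH 7.4) and preincubated with compounds (duplicate 8-point) for 10 min at room temperature. Ca2+ injection to 5 mM final produced FLIPR GCaMP fluorescence, giving AC50 for influx inhibition (geometric mean, ≥2 runs).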

For assay [1], the system named is HEK293 cells overexpressing APOL1 G2. Description: APOL1 G2 HEK293 cell rescue assay (reversal of cell death caused by overexpression of APOL1). Type of assay: cell-based. The settings on record: Homo sapiens, HEK293, HEK293 overexpressing APOL1 G2; geometric mean of at least 2 assay runs; † = single assay run. In outline: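 EC50 is the half-maximal effective concentration for reversing cell death driven by APOL1 G2 overexpression in HEK293 cells. Reported as geometric mean of at least 2 runs on separate days, each run averaging duplicate wells per plate; some values from a single run.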

The structures appear in SMILES notation. pEC50: −log10 of the molar value.

Regarding `O=C(c1ccc(OCCN2CCC3(CC2)C(=O)Nc2ccc(Cl)cc23)cc1C(F)(F)F)N1CCS(=O)(=O)CC1` [Compound 272, 4-[4-(2-{5-chloro-2-oxo-1,2-dihydrospiro[indole-3,4′-piperidin]-1′-yl}ethoxy)-2-(trifluoromethyl)benzoyl]-1λ^6-thiomorpholine-1,1-dione], the half-maximal activity concentration (AC50) on APOL1 G2 stood at 921 nM. Moreover, in assay [1], the pEC50 is 7.03.
Taken in the same sequence, the figures for `CC(O)c1ncc(OCCN2CCC3(CC2)C(=O)Nc2ccc(Cl)cc23)cn1` (stereo not shown) [Compound 284, 5-chloro-1′-(2-{[2-(1-hydroxyethyl)pyrimidin-5-yl]oxy}ethyl)-1,2-dihydrospiro[indole-3,4′-piperidin]-2-one] were 756 nM and 6.70.

In general, AC50 refers to the midpoint of the concentration-response curve, whichever way the signal moves. As usually defined, the pEC50 is the EC50 on a negative log10 scale, so that one unit is a factor of ten.
